The values that follow come from patent EP1792623B1, “Use of extracts and constituents of leontopodium as enhancers of cholinergic function” (Leopold-Franzens-Universität Innsbruck, priority 2005, dated 2007).

The test relates to acetylcholinesterase. In kind it is biochemical. To be noted: 100 µM, after 60 min, in comparison to medium control, n=4. As to the method: Experiments are carried out applying Ellman's method in a 96-well microplate assay described by Ingkaninan et al, Journal of Chromatography A 827 (2000) p. 6173 and Rhee et al, Journal of Chromatography A 915 (2001) p. 217-223. In addition to buffer A described above, a buffer containing 0.1 M NaCl and 0.02 M MgClx2.6 H2O in buffer A is used for preparing a 3 mM solution of DTNB. For the microplate assay the substrate ATCI is dissolved 15 mM in water (HPLC grade). The enzyme stock solution is diluted with buffer A to get 0.22 U/ml. In the 96-well plates, 25 µl of 15 mM ATCl, 125 µl of 3 mM DTNB, 50 µl of buffer A, and 25 µl of sample (10 mM in MeOH, respectively DMSO (dimethylsulfoxide), diluted ten times with buffer A) are added. […] […] The absorbance of the product (2-nitrobenzoate-5-mercapto thioline) is measured at 405 nm with a Chameleon 5025 (Hidex, Finland) microplate reader 0, 15, 30, 45 and 60 minutes after adding 25 µl of 0.22 U/ml acetylcholinesterase-solution to the reaction mixture. All experiments are performed 4 times (n=4) and the data are statistically processed using the SPSS 11.5 program package. Percentage of inhibition is calculated by comparing the rates for the sample to the blank (10% MeOH, resp. DMSO, in buffer).
Take `C/C=C(/C)C(=O)OC[C@H]1[C@@H](Cc2ccc(OC)c(OC)c2)CO[C@@H]1c1ccc(OC)c(OC)c1` [[(2S,3R,4R)-4-(3,4-dimethoxy-benzyl)-2-(3,4-dimethoxy-phenyl)tetrahydrofuran-3-yl]methyl-(2Z)-2-methylbut-2-en-oate]: the “inhibition (%)” value came to 17.5%.

Regarding `C/C=C(/C)C(=O)OC[C@H]1[C@@H](Cc2ccc(OC)c(OC)c2)CO[C@@H]1c1cc(OC)c(OC)c(OC)c1` [[(2S,3R,4R)-4-(3,4-dimethoxy-benzyl)-2-(3,4,5-trimethoxy-phenyl)tetrahydrofuran-3-yl]methyl-(2Z)-2-methylbut-2-en-oate], the “inhibition (%)” value stood at 5.0%.

Take `C=C(C)C1COc2cc3oc(=O)ccc3cc2O1` (centres unmarked) [obliquine]: the “inhibition (%)” value came to 18.1%.

For bisabolan A, the “inhibition (%)” value is on record as 23.3%.

Turning to `C=C(CO)[C@H]1Oc2ccc(C(C)=O)cc2[C@H]1O[C@@H]1O[C@H](CO)[C@@H](O)[C@H](O)[C@H]1O` (relative stereo) [1-{(2R*,3R*)-2-[1-(hydroxymethyl)vinyl]-3-(β-D-gluco-pyranosyloxy)-2,3-dihydro-1-benzofuran-5-yl}-ethanone], the “inhibition (%)” value is on record as -0.6%.

On to bisabolan E, for which the “inhibition (%)” value was 56.9%.

As for `CC(=O)OCC1=C[C@]2(C)CCC3[C@H](C)CCC32C1C` (relative stereo) [[(1R*,3aS,6R)-1,3a,6-trimethyl-1,3a,4,5,5a,6,7,8-octahydrocyclo-penta[c]pentalen-2-yl]methylacetat], the “inhibition (%)” value is 61.8%.

On to β -isocomene, for which the “inhibition (%)” value was found to be 40.8%.

Take `C/C=C(/C)C(=O)OC[C@H]1[C@@H](Cc2cc(OC)c(OC)c(OC)c2)CO[C@@H]1c1cc(OC)c(OC)c(OC)c1` [[(2S,3R,4R)-4-(3,4,5-trimethoxy-benzyl)-2-(3,4,5-trimethoxy-phenyl)tetrahydrofuran-3-yl]methyl-(2Z)-2-methylbut-2-en-oate]: the “inhibition (%)” value is reported as -6.4%.

On to “(4a,7b,8a,9b,15a)-7,9-dihydroxy-15-{[(2Z)-2-methylbut-2-enoyl]oxy} kaur-16-en-19-oate”, for which the “inhibition (%)” value was 53.7%.

For `C[C@@H]1CC[C@@H]2C(C)(C)C[C@]3(C)CC=C[C@]123` [silphinene], the “inhibition (%)” value is reported as 3.2%.

As to ent-kaur-16-enic-19-acid, the “inhibition (%)” value was 35.6%.

In the case of `CC1=C[C@@H]2[C@@H](CC1)[C@@](C)(O)CC[C@H]2C(C)C` [t-Cadinol], the “inhibition (%)” value is listed as 10.3%.

Turning to “1-acetyloxy-3-angeloyloxy-(4E,6E)-tetradeca-4,6-dien-8,10,12-triyne and the 4E,6Z isomer”, the “inhibition (%)” value stood at 16.5%.

`C=C(C)C1COc2cc3oc(=O)ccc3c(OC)c2O1` (centres unmarked) [5-methoxy-obliquin]: the “inhibition (%)” value is given as 3.4%.

As for 15-acetoxy-modhephene, the “inhibition (%)” value is 56.4%.

As for `C=C(C)C1COc2cc3oc(=O)ccc3c(O)c2O1` (centres unmarked) [5-hydroxy-obliquin], the “inhibition (%)” value is given as 1.9%.
